What was measured:
[1] = system: penta-exposed, triple-class refractory MM; experiment: pivotal STORM Part 2 study; format: in vivo
Description: Eligible patients had measurable MM by International Myeloma Working Group (IMWG) criteria (See, Durie B G, Harousseau J L, Miguel J S, et al. International uniform response criteria for multiple myeloma. Leukemia 2006;20:1467-73. Rajkumar S V, Harousseau J L, Durie B, et al. Consensus recommendations for the uniform reporting of clinical trials: report of the International Myeloma Workshop Consensus Panel. Blood 2011;117:4691-5); prior treatment with bortezomib, carfilzomib, lenalidomide, pomalidomide, daratumumab, glucocorticoids, and an alkylating agent; and had disease refractory to at least 1 IMiD (lenalidomide and pomalidomide), 1 PI (bortezomib or carfilzomib), daratumumab, glucocorticoids and to their last regimen. Refractory disease was defined as progression during or within 60 days after completion of therapy, or <25% response to therapy.19, 20 Eastern Cooperative Oncology Group performance status of 0-2, adequate hepatic function, renal function, and hematopoietic function were required. Systemic light chain amyloidosis, active central nervous system involvement, grade≥3 peripheral or grade≥2 painful neuropathy were exclusion criteria.
Oral selinexor 80 mg in combination with dexamethasone 20 mg was administered on days 1 and 3, weekly, in 4-week cycles until disease progression, death or discontinuation. A dose modification protocol was used for adverse event (AE) management. All patients were required to receive ondansetron 8 mg (or equivalent) prior to the first dose of study drug and 2-3 times daily as needed. Other antiemetics (olanzapine, NK-1R antagonists) were permitted for patients intolerant to or with persistent nausea. Supportive measures were provided at the discretion of the investigator and may have included intravenous fluids, hematopoietic growth factors, transfusions, and/or appetite stimulants (olanzapine, megesterol acetate).
The primary endpoint was Overall Response Rate (ORR) adjudicated by the appointed Independent Review Committee (IRC). Secondary endpoints included duration of response (DOR), clinical benefit rate (CBR), progression-free survival (PFS) and OS (Overall Survival). Disease-specific assessments were conducted at baseline, day 1 of each treatment cycle, and at the time of disease progression or suspected response. High-risk cytogenetics included del(17p), t(4;14), t(14;16), and gain(1q) chromosomal abnormalities by fluorescent in situ hybridization (FISH). Quality of life was assessed using the Functional Assessment of Cancer Therapy-Multiple Myeloma (FACT-MM) patient-reported outcome questionnaire. Safety and tolerability were assessed through history, physical exam, laboratory assessments and 12-lead electrocardiogram. Adverse events (AEs) were graded according to the NCI CTCAE v4.03.
The sample size was based on assumptions for penta-exposed, triple-class-refractory MM using a minimal threshold for ORR of 10%. For the primary efficacy analysis, a sample size of 122 patients allowed for a one-sided test at α=0.025 to detect an ORR of ≥20% against the threshold ORR of 10% with 90% power. The modified intention-to-treat (mITT) population was used for the primary efficacy analysis, comprised of all enrolled patients who met all eligibility criteria or received a waiver from the Sponsor to enroll in the trial and received at least 1 dose of selinexor plus dexamethasone. The safety population included all patients who received at least 1 dose of study drug. The primary analysis used a 2-sided, exact 95% confidence interval, calculated for the ORR among the mITT population, with statistical significance declared if the lower bound of this interval was >10%. […] Summary statistics for continuous variables minimally included: n (number), mean, standard deviation (SD), minimum, median, and maximum. For categorical variables, frequencies and percentages are presented. For time-to-event variables, the Kaplan-Meier method was used for descriptive summaries.

[2] = system: MM refractory to either 4 or 5 drugs (quad- and penta-refractory); experiment: phase 2 STORM study Part 1; format: in vivo, human; conditions: Selinexor 80 mg in combination with dexamethasone 20 mg, 2 dosing schedules; quad- and penta-refractory MM patients
Procedure: Selinexor 80 mg in combination with dexamethasone 20 mg administered using 2 dosing schedules was studied in patients with MM refractory to either 4 or 5 drugs (quad- and penta-refractory) in Part 1 of the phase 2 STORM (Selinexor Treatment Of Refractory Myeloma) study. Median overall response rate (ORR) was 21% in this heterogeneous population. Based on these findings, the activity of selinexor 80 mg administered twice-weekly was examined in a more uniform population in the pivotal STORM Part 2 study.

quad-refractory myeloma = conditions: pivotal phase 2 study; cited from earlier work
refractory MM = conditions: expansion cohort (n=15) of the phase 1 monotherapy study; cited from earlier work
[3] = system: bortezomib-refractory disease; conditions: cited from earlier work
[4] = selinexor 80 mg + dexamethasone 20 mg twice weekly
[5] = selinexor 80 mg + dexamethasone 20 mg twice weekly, % of mITT patients
[6] = selinexor 80 mg + dexamethasone 20 mg twice weekly, % of patients

O=C(/C=C\n1cnc(-c2cc(C(F)(F)F)cc(C(F)(F)F)c2)n1)NNc1cnccn1 [selinexor, Selinexor]
discontinuation because of AEs (unrelated and related) ([1]; most common reasons for discontinuation): 32.5%
Overall response rate (ORR) ([1]; oral selinexor 80 mg + dexamethasone 20 mg, days 1 and 3 weekly, mITT population (122 patients), IRC adjudicated): 26.2%
CBR (≥minimal response), clinical benefit rate [1, 4]: 39.3%
OS (Overall Survival) [1, 4]: 8.6 months
PFS (progression-free survival) [1, 4]: 3.7 months
median DOR (duration of response) [1, 4]: 4.4 months
partial responses [1, 5]: 19.7%
stringent complete responses [1, 5]: 1.6%
very good partial responses [1, 5]: 4.9%
Minimal response [1, 6]: 13.1%
progressive disease or disease not evaluable [1, 6]: 21.3%
stable disease [1, 6]: 39.3%
response of patients with relapse after CAR-T ([1]; selinexor 80 mg + dexamethasone 20 mg twice weekly, both (2) patients with prior CAR-T therapy): partial response
Median time to partial response or better ([1]; selinexor 80 mg + dexamethasone 20 mg twice weekly, range 1-14 weeks): 4.1 weeks
median OS in patients who achieved a partial or minimal response or better ([1]; selinexor 80 mg + dexamethasone 20 mg twice weekly, responder subgroup): 15.6 months
efficacy across subgroups ([1]; subgroups including patients with high-risk cytogenetics (53% of the patients)): consistent across subgroups
Overall response rate (ORR) [2]: 21%

daratumumab
ORR (quad-refractory myeloma): 21.2%
ORR (refractory MM): 36%

CC(C)C[C@H](NC(=O)[C@H](CCc1ccccc1)NC(=O)CN1CCOCC1)C(=O)N[C@@H](Cc1ccccc1)C(=O)N[C@@H](CC(C)C)C(=O)[C@@]1(C)CO1 [carfilzomib]
ORR [3]: 18.9%

From US20220178927A1, “BIOMARKERS FOR SELINEXOR” (Karyopharm Therapeutics Inc., priority 2019, published 2022)
